The values below are quoted from earlier work in US6472398B1, “Spiropiperidine derivatives as melanocortin receptor agonists” (Merck & Co., Inc., priority 2000, dated 2002).

Data set [1] concerns patients with erectile dysfunction. Conditions: for duration of effect / onset of action: after an oral dose; for share of patients with adequate response: oral, men with erectile dysfunction.
Data set [2] deals with males with psychogenic erectile dysfunction.
The subject of another data set is rodents. As to conditions: ICV; NPY, ob/ob, agouti, fasted feeding models.

For the compound `Cc1ccc(N(CC2=NCCN2)c2cccc(O)c2)cc1` [phentolamine], in data set [1], the duration of effect is 2 h, the onset of action is 5 to 30 min and the “share of patients with adequate response” value is listed as 35-40%.

With `CCCc1nn(C)c2c(=O)[nH]c(-c3cc(S(=O)(=O)N4CCN(C)CC4)ccc3OCC)nc12` [sildenafil], in data set [1], the duration of effect result was “about 4 hours”, the onset of action is 30 to 60 min and the “share of patients with adequate response” value was “about 70%”.

“Ac-Nle-c[Asp-His-DPhe-Arg-Trp-Lys]-NH2 [MT-II]”: in data set [2] (in vivo), the duration of action result is on record as “approximately 2.5 hours” and the “time to onset of erection” value was 10 to 20 min. For the same compound, the “absorption into the systemic circulation” value in data set [2] (in vivo, po) was “not absorbed into the systemic circulation”. For the same compound, in data set [2] (injected intramuscularly or subcutaneously), the response rate was 75%. The “effect on food intake” value in the data set with rodents was “reduces food intake”.

In the case of SHU-9119, the “effect on food intake” value in the data set with rodents was “reverses this effect and can induce hyperphagia”.
